The subject of experiment [1] is Wnt-dependent HCT116 cell line. As to the kind of experiment: Viability assay using Wnt-dependent HCT116 cell line (Cell Titer Glo). It is filed as cell-based. As for the experimental part: All compounds were tested using the human cell line HEK STF293. This cell line carries a Wnt reporter (TCF/LEF1 promoter), which drives expression of the firefly luciferase protein. The level of Wnt activity is directly correlated with the level of luciferase activity (determined using a simple assay). Compounds that inhibit Wnt signaling by reducing luciferase activity in these two cell lines are further tested biochemically. […] Compounds were further tested in a Viability assay using Wnt-dependent HCT116 cell line. HEK293 cells were seeded in a 6-well plate at approximately 8.0×10^5 cells (2 mL per well). On the first day, Wnt3a-conditioned media (1:1) and compounds (1:100) were added to the plated cells. The final concentrations of compounds were 1 μM, 500 nM, and 100 nM. Vehicle (DMSO) and a Wnt3a-conditioned media plus Vehicle samples were also prepared as controls. Lysates were collected (with non-denaturing lysis buffer) after 24 hours incubation, and protein concentrations determined by Bradford Assay. Immunoblotting with an anti-beta-catenin antibody (equivalent amounts of protein/lane for each condition) were subsequently performed to determine beta-catenin levels. HCT116 cells were seeded at 2,500 cells/well in a 96-well dish (Volume: 100 μL/well). On the second day, the 10 mM stock solution of each test compound was thawed at room temperature. Dilutions of the test compound were prepared in DMSO in a V-bottom 96-well plate. The stock compound solution, DMSO-diluted compound solutions, and DMSO were further diluted 500-fold in cell culture media, and 100 μL of the compound- or DMSO-containing cell culture media was added to each well of the cells. […] The final DMSO concentration was 0.1% in all wells. On the fifth day, 150 μL of media was removed from each well. 50 μL/well Cell Titer Glo reagent (Promega) was added to each well. The plate was shaken at 130 rpm for 15 minutes at room temperature, and the cell viability was determined using a luminescence plate reader. All compounds were tested using the human cell line HEK STF293. This cell line carries a Wnt reporter (TCF/LEF1 promoter), which drives expression of the firefly luciferase protein. The level of Wnt activity is directly correlated with the level of luciferase activity (determined using a simple assay). Compounds that inhibit Wnt signaling by reducing luciferase activity in these two cell lines are further tested biochemically. […] Compounds were further tested in a Viability assay using Wnt-dependent HCT116 cell line. HEK293 cells were seeded in a 6-well plate at approximately 8.0×10^5 cells (2 mL per well). On the first day, Wnt3a-conditioned media (1:1) and compounds (1:100) were added to the plated cells. The final concentrations of compounds were 1 μM, 500 nM, and 100 nM. Vehicle (DMSO) and a Wnt3a-conditioned media plus Vehicle samples were also prepared as controls. Lysates were collected (with non-denaturing lysis buffer) after 24 hours incubation, and protein concentrations determined by Bradford Assay. Immunoblotting with an anti-beta-catenin antibody (equivalent amounts of protein/lane for each condition) were subsequently performed to determine beta-catenin levels. HCT116 cells were seeded at 2,500 cells/well in a 96-well dish (Volume: 100 μL/well). On the second day, the 10 mM stock solution of each test compound was thawed at room temperature. Dilutions of the test compound were prepared in DMSO in a V-bottom 96-well plate. The stock compound solution, DMSO-diluted compound solutions, and DMSO were further diluted 500-fold in cell culture media, and 100 μL of the compound- or DMSO-containing cell culture media was added to each well of the cells. […] The final DMSO concentration was 0.1% in all wells. On the fifth day, 150 μL of media was removed from each well. 50 μL/well Cell Titer Glo reagent (Promega) was added to each well. The plate was shaken at 130 rpm for 15 minutes at room temperature, and the cell viability was determined using a luminescence plate reader. […]
(Cellular ATP, detected with luciferase, serves as a proxy for viable cell number.)

Experiment [2] deals with Wnt reporter (TCF/LEF1 promoter). Description: HEK STF293 Wnt reporter (TOPFlash) luciferase assay, Steady Glo normalised to Cell Titer. Format: cell-based, human. As for the experimental part:
All compounds were tested using the human cell line HEK STF293. This cell line carries a Wnt reporter (TCF/LEF1 promoter), which drives expression of the firefly luciferase protein. The level of Wnt activity is directly correlated with the level of luciferase activity (determined using a simple assay). Compounds that inhibit Wnt signaling by reducing luciferase activity in these two cell lines are further tested biochemically. […] Compounds were further tested in a Viability assay using Wnt-dependent HCT116 cell line. Compounds were prepared as 10 mM stocks for each compound in DMSO. Dilutions were prepared in a 96-well plate in DMSO. The stock dilutions are as follows: 10 mM, 1 mM, 100 μM, 10 μM, 100 nM, and 10 nM. Plates were sealed and stored at −20° C. […] On the first day, Wnt3a-conditioned media (1:1) were added along with diluted compounds (1:100). […] The final concentrations should therefore be 100 μM, 10 μM, 1 μM, 100 nM, 10 nM, and 1 nM. On the second day, the media was removed and 75 μL of Passive Lysis Buffer (Promega) is added to each well. The plate was shaken at 130 rpm for 15 minutes. For the Steady Glo assay, 45 μL of the lysis was removed and added to a white 96-well plate containing 45 μL/well of Steady Glo solution (Promega). For the Cell Titer assay, 25 μL of the lysis was transferred to a white 96-well plate containing 25 μL/well of Cell Titer solution (Promega). Both Steady Glo and Cell Titer assays were read with a luminescence plate reader. When determining EC50, the Steady Glo values were divided by the Cell Titer values to normalize for cell number. All compounds were tested using the human cell line HEK STF293. This cell line carries a Wnt reporter (TCF/LEF1 promoter), which drives expression of the firefly luciferase protein. The level of Wnt activity is directly correlated with the level of luciferase activity (determined using a simple assay). Compounds that inhibit Wnt signaling by reducing luciferase activity in these two cell lines are further tested biochemically. […] Compounds were further tested in a Viability assay using Wnt-dependent HCT116 cell line. Compounds were prepared as 10 mM stocks for each compound in DMSO. Dilutions were prepared in a 96-well plate in DMSO. The stock dilutions are as follows: 10 mM, 1 mM, 100 μM, 10 μM, 100 nM, and 10 nM. Plates were sealed and stored at −20° C. […] On the first day, Wnt3a-conditioned media (1:1) were added along with diluted compounds (1:100). […] The final concentrations should therefore be 100 μM, 10 μM, 1 μM, 100 nM, 10 nM, and 1 nM. On the second day, the media was removed and 75 μL of Passive Lysis Buffer (Promega) is added to each well. The plate was shaken at 130 rpm for 15 minutes. For the Steady Glo assay, 45 μL of the lysis was removed and added to a white 96-well plate containing 45 μL/well of Steady Glo solution (Promega). For the Cell Titer assay, 25 μL of the lysis was transferred to a white 96-well plate containing 25 μL/well of Cell Titer solution (Promega). Both Steady Glo and Cell Titer assays were read with a luminescence plate reader. When determining EC50, the Steady Glo values were divided by the Cell Titer values to normalize for cell number. All compounds were tested using the human cell line HEK STF293. This cell line carries a Wnt reporter (TCF/LEF1 promoter), which drives expression of the firefly luciferase protein. The level of Wnt activity is directly correlated with the level of luciferase activity (determined using a simple assay). Compounds that inhibit Wnt signaling by reducing luciferase activity in these two cell lines are further tested biochemically. […] Compounds were further tested in a Viability assay using Wnt-dependent HCT116 cell line. Compounds were prepared as 10 mM stocks for each compound in DMSO. Dilutions were prepared in a 96-well plate in DMSO. The stock dilutions are as follows: 10 mM, 1 mM, 100 μM, 10 μM, 100 nM, and 10 nM. Plates were sealed and stored at −20° C. […]

[3] abbreviates: Homo sapiens, HCT-116, Examples for Formulae (IV), (V), (VI), and (VII), HCT116 cells, read-out: Viability IC50 category.
[4] abbreviates: Homo sapiens, STF/293, Examples for Formulae (IV), (V), (VI), and (VII), HEK STF293 cells, Wnt3a-conditioned media, read-out: TOPFlash IC50 category.
The mark [5] stands for this setting: Examples for Formulae (IV), (V), (VI), and (VII), HCT116 cells, read-out: Viability IC50 category.
Setting [6] is: Examples for Formulae (IV), (V), (VI), and (VII), HEK STF293 cells, Wnt3a-conditioned media, read-out: TOPFlash IC50 category.
The mark [7] stands for this setting: Homo sapiens, HCT-116, Examples for Formulae (I), (II), and (III), HCT116 cells, read-out: Viability IC50 category.
Where [8] appears, read: Homo sapiens, STF/293, Examples for Formulae (I), (II), and (III), HEK STF293 cells, Wnt3a-conditioned media, read-out: TOPFlash IC50 category.
[9] abbreviates: Homo sapiens, HCT-116, read-out: Viability IC50 category.
[10] abbreviates: Homo sapiens, STF/293, read-out: TOPFlash IC50 category.

Like-named read-outs stand apart in the source and are kept apart here. Bounds are passed on as bounds.

The term IC50 denotes the concentration that gives 50% inhibition. With `Cc1nc(-c2ccc(Cl)cc2)c(C(=O)Nc2nc(-c3ccccn3)cs2)o1` [Example 9], the IC50 in experiment [1] (setting [3]) and in experiment [2] (setting [4]) was less than 200 nM each time.
Take `CN(c1nc(-c2ccc(F)cc2)c(C(=O)Nc2nc(-c3ccccn3)cs2)o1)S(=O)(=O)c1ccc(C(F)(F)F)cc1` [Example 61]: the IC50 in experiment [1] (setting [5]) and in experiment [2] (setting [6]) was less than 200 nM throughout.
On to `Cc1onc(-c2ccc(Cl)cc2Cl)c1C(=O)Nc1nc(-c2ccccn2)cs1` [Example 17], for which the IC50 in experiment [1] (setting [3]) and in experiment [2] (setting [4]) was 200 to 500 nM each time.
Consider `CC(C)CS(=O)(=O)N(C)c1nc(-c2ccc(F)cc2)c(C(=O)Nc2nc(-c3ccccn3)cs2)o1` [Example 60], for which the IC50 in experiment [1] (setting [3]) and in experiment [2] (setting [4]) was less than 200 nM in each case.
For the compound `Cc1c(C(=O)Nc2nc(-c3ccccn3)cs2)cnn1Cc1ccccc1` [Example 1], the IC50 in experiment [1] (setting [7]) and in experiment [2] (setting [8]) was 1000 to 10000 nM each time.
With `Cc1nc(N(C)S(=O)(=O)c2cccc(Cl)c2)oc1C(=O)Nc1nc(-c2ccccn2)cs1` [Example 51], the IC50 in experiment [1] (setting [3]) and in experiment [2] (setting [4]) was 500 to 1000 nM throughout.
`Cc1onc(-c2ccc(C(F)(F)F)cc2)c1C(=O)Nc1nc(-c2ccccn2)cs1` [Example 24]: the IC50 in experiment [1] (setting [9]) and in experiment [2] (setting [10]) was less than 200 nM each time.
As to `COc1ccccc1-c1noc(C)c1C(=O)Nc1nc(-c2ccccn2)cs1` [Example 21], the IC50 in experiment [1] (setting [9]) and in experiment [2] (setting [10]) was 1000 to 10000 nM in each case.
`Cn1cc(C(=O)Nc2nc(-c3ccccn3)cs2)c(-c2ccccc2Cl)n1` [Example 2]: the IC50 in experiment [1] (setting [7]) was 500 to 1000 nM; in experiment [2] (setting [8]), 1000 to 10000 nM.
For `Cc1nc(N(C)C(=O)c2ccccc2Cl)oc1C(=O)Nc1nc(-c2ccccn2)cs1` [Example 77], the IC50 in experiment [1] (setting [5]) was 500 to 1000 nM; in experiment [2] (setting [6]) it was 200 to 500 nM.
In the same order, the values of `COc1cc(F)ccc1-c1ncoc1C(=O)Nc1nc(-c2ccccn2)cs1` [Example 46] are 500 to 1000 nM and 500 to 1000 nM.
In the same order, the values of `CN(c1nc(C(F)(F)F)c(C(=O)Nc2nc(-c3ccccn3)cs2)o1)S(=O)(=O)c1ccc(Cl)cc1` [Example 53] are 500 to 1000 nM and 500 to 1000 nM.
Turning to `CN(c1nc(C(F)(F)F)c(C(=O)Nc2nc(-c3ccccn3)cs2)o1)S(=O)(=O)c1ccc(C(F)(F)F)cc1` [Example 55], the IC50 in experiment [1] (setting [3]) and in experiment [2] (setting [4]) was 200 to 500 nM each time.
As for `Cc1nc(N(C)S(=O)(=O)c2ccc(Cl)cc2)oc1C(=O)Nc1nc(-c2ccccn2)cs1` [Example 52], the IC50 in experiment [1] (setting [3]) and in experiment [2] (setting [4]) was 500 to 1000 nM throughout.
Regarding `CS(=O)(=O)c1cccc(-c2ncoc2C(=O)Nc2nc(-c3ccccn3)cs2)c1` [Example 48], the IC50 was in the range of 200 to 500 nM in experiment [1] (setting [5]) and 500 to 1000 nM in experiment [2] (setting [6]).
As for `CN1CCN(c2cccc(-c3ncoc3C(=O)Nc3nc(-c4ccccn4)cs3)c2)CC1` [Example 45], the IC50 in experiment [1] (setting [5]) and in experiment [2] (setting [6]) was 1000 to 10000 nM each time.
For the compound `Cc1nnc(-c2ccc(-c3nc(C)oc3C(=O)Nc3nc(-c4ccccn4)cs3)cc2)o1` [Example 65], the IC50 in experiment [1] (setting [5]) and in experiment [2] (setting [6]) was less than 200 nM in each case.
As for `O=C(Nc1nc(-c2ccccn2)cs1)c1c(C(F)(F)F)nn(-c2ccccc2)c1C(F)(F)F` [Example 17], the IC50 in experiment [1] (setting [7]) and in experiment [2] (setting [8]) was 1000 to 10000 nM each time.
For the compound `Cc1nn(Cc2ccccc2)c(C)c1C(=O)Nc1nc(-c2ccccn2)cs1` [Example 4], the IC50 in experiment [1] (setting [7]) was in the range of 1000 to 10000 nM; in experiment [2] (setting [8]), 500 to 1000 nM.
Turning to `CN(c1nc(C(F)(F)F)c(C(=O)Nc2nc(-c3ccccn3)cs2)o1)S(=O)(=O)c1ccc(F)cc1` [Example 54], the IC50 in experiment [1] (setting [3]) and in experiment [2] (setting [4]) was 1000 to 10000 nM throughout.
As to `CN(C(=O)c1ccccc1F)c1ncc(C(=O)Nc2nc(-c3ccccn3)cs2)o1` [Example 36], the IC50 in experiment [1] (setting [3]) is 500 to 1000 nM; in experiment [2] (setting [4]), 200 to 500 nM.
As for `O=C(Nc1nc(-c2ccccn2)cs1)c1ccc(=O)n(-c2ccc(F)cc2)c1` [Example 2], the IC50 in experiment [1] (Homo sapiens, HCT-116, Examples for Formulae (VIII), (IX), and (X), HCT116 cells, read-out: Viability IC50 category) is 500 to 1000 nM; in experiment [2] (Homo sapiens, STF/293, Examples for Formulae (VIII), (IX), and (X), HEK STF293 cells, Wnt3a-conditioned media, read-out: TOPFlash IC50 category), 200 to 500 nM.

The values above are taken from patent US20250257061A1, “COMPOSITIONS AND METHODS FOR TREATING CANCER AND REDUCING WNT MEDIATED EFFECTS” (StemSynergy Therapeutics, Inc., priority 2024, published 2025).
